# According to patent US20250268948A1, “COMPOSITIONS AND METHODS FOR TREATING POST ACUTE SEQUELAE OF SARS-COV-2 INFECTION (LONG COVID)” (priority 2022, published 2025):
# Where two headings read alike, the source gives them in different places.
# Legend:
# [1] = test system: CAFs, primary fibroblasts and MSCs; experiment: Cell-based proliferation assay (Presto Blue); design: species or system human; details: 5 day exposure; FIG. 8
# Protocol: (§1) The effects of fibroblast growth factor 2 (FGF-2), lithium, and VPA on stem cell proliferation were then investigated, using an assay based on Presto Blue, a fluorescent marker of cellular reduction. FIG. 8 is a line graph representation illustrating proliferation of different cell lines induced by increasing concentrations of FGF-b (FGF-2) after a 5 day exposure. Relative fluorescent units were measured using a FITC filter on a Modulus Microplate Reader and plotted as a function of FGF-2. The data were modeled by sigmoidal curve fitting to calculate EC50 values. […] Proliferation of these mesenchymal cells was stimulated by recombinant human FGF-2 with EC50 values in the range of 3 ng/mL to 6 ng/mL with maximal proliferative responses at about 10 ng/mL.
# [2] = test system: Oct 3/4; experiment: qPCR gene expression analysis in human MSCs; format: cell-based; details: for Oct 3/4 expression increase: 250 μM VPA, 500 nM curcumin, compared to beta-actin, FIG. 13
# Protocol: (§2) Beta actin was measured as a house-keeping gene. […] Gene expression was quantified by determining the amount of gene-specific DNA/total cDNA. Data are mean+/−SD of 4 replicates.
# (§3) Native human umbilical cord-derived MSCs (Vitro Biopharma Cat. No. SC00A1) were expanded from cryopreservation in a T-25 TC-coated flasks (BD Falcon, Cat. No. 353108) in MSC-GRO™ low serum, complete medium (Vitro Biopharma Cat. No. SC00BI). Cells were subcultured and counted on a Beckerman-Coulter Z2 particle counter (range 10 μm-30 μm). Cells were plated at 10,000/cm^2 a TC-coated Greiner Bio-One T75 flask and maintained in MSC-GRO™ serum free, complete medium (Vitro Biopharma Cat. No. SC00B3) in a reduced 02 environment (1% O2, 5% CO2, 94% N2) at 37° C. in a humidified chamber. The MSCs were treated continuously for up to 2 weeks. Cultures were fed every three days. Cells were harvested using ACCUTASE™ (Innovative Cell Technologies Inc., Cat No AT-104) and centrifuged (450×g) for 7 minutes. Cell supernatant was aspirated off and cells were resuspended in 1 mL PBS and counted on a Beckerman-Coulter Z2 particle counter (range 10 μm-30 μm). Total RNA was extracted using RNeasy Mini Kit (Qiagen Cat. No. 74104). RNA was quantified using an absorbance measurement at 260 nm. RNA was converted to cDNA using Quantitect Reverse Transcription Kit (Qiagen Cat. No. 205310) in a thermocycler. RNA was incubated in the gDNA elimination reaction for 2 minutes at 42° C. then incubated in the reverse-transcription master mix for 15 minutes at 42° C. Immediately after, it was incubated at 95° C. for 3 minutes for inactivation. cDNA was sent to an outside lab (CU-Anschutz Metabolic Laboratory) for q-PCR to detect relative or absolute gene expression levels. cDNA was diluted 1:5 and iTaq Universal Supermix fluorescent probe (BioRad Cat. No. 172-5120) used to detect the threshold cycle (Ct) during PCR. Dilution factors and cDNA concentrations were calculated into recorded values then normalized to untreated hMSCs (Vitro Biopharma Cat. No. SC00A1).
# (§4) Gene expression was quantified by determining the amount of gene-specific DNA/total cDNA. Data are mean+/−S.D. of 4 replicates.
# (§5) Native human umbilical cord-derived MSCs (Vitro Biopharma Cat. No. SCOOA1) were expanded from cryopreservation in a T-25 TC-coated flasks (BD Falcon, Cat. No. 353108) in MSC-GRO™ low serum, complete medium (Vitro Biopharma Cat. No. SC00B1). Cells were subcultured and counted on a Beckerman-Coulter Z2 particle counter (range 10 μm-30 μm). […] The MSCs were treated continuously for up to 2 weeks. Cultures were fed every three days. Cells were harvested using ACCUTASE™ (Innovative Cell Technologies Inc., Cat No AT-104) and centrifuged (450×g) for 7 minutes. Cell supernatant was aspirated off and cells were resuspended in 1 mL PBS and counted on a Beckerman-Coulter Z2 particle counter (range 10 μm-30 μm).
# (§6) Total RNA was extracted using RNeasy Mini Kit (Qiagen Cat. No. 74104). RNA was quantified using an absorbance measurement at 260 nm. RNA was converted to cDNA using Quantitect Reverse Transcription Kit (Qiagen Cat. No. 205310) in a thermocycler. RNA was incubated in the DNA elimination reaction for 2 minutes at 42° C. then incubated in the reverse-transcription master mix for 15 minutes at 42° C. Immediately after, it was incubated at 95° C. for 3 minutes for inactivation. cDNA was sent to an outside lab (CU-Anschutz Metabolic Laboratory) for q-PCR to detect relative or absolute gene expression levels. cDNA was diluted 1:5 and iTaq Universal Supermix fluorescent probe (BioRad Cat. No. 172-5120) used to detect the threshold cycle (Ct) during PCR. Dilution factors and cDNA concentrations were calculated into recorded values then normalized to untreated hMSCs (Vitro Biopharma Cat. No. SC00A1).
# [3] = test system: FGF-21; experiment: qPCR gene expression analysis in human MSCs; format: cell-based; details: for FGF-21 expression increase: 250 μM VPA, 500 nM curcumin, up to 2 weeks, FIG. 13
# Protocol: as §2, §3, §4, §5, §6
# [4] = test system: SIRT-1; experiment: qPCR gene expression analysis in human MSCs; format: cell-based; details: up to 2 weeks; for SIRT-1 expression increase: 250 μM VPA, 500 nM curcumin, FIG. 13
# Protocol: as §2, §3, §4, §5, §6
# [5] = test system: Hsp70; experiment: qPCR gene expression analysis in human MSCs; format: cell-based; details: for Hsp70 expression increase: 250 μM VPA, 500 nM curcumin, up to 2 weeks, FIG. 13
# Protocol: as §4, §5, §6
# [6] = test system: CXCR4; experiment: qPCR gene expression analysis in human MSCs; format: cell-based; details: for CXCR4 expression increase: 250 μM VPA, 500 nM curcumin, up to 2 weeks, FIG. 13
# Protocol: as §4, §5, §6
# [7] = test system: human MSCs; experiment: Stem cell migration assay (percent closure of cell-free zone); details: for effect on MSC migration induced by curcumin and quercetin / effect on MSC migration induced by curcumin and resveratrol: 20 micromolar AMD3100 / 15 micromolar GM6001; for effect on MSC migration induced by curcumin and quercetin: FIG. 14; for effect on MSC migration induced by curcumin and resveratrol: FIG. 15; for EC50: Homo sapiens
# Protocol: FIG. 1 is a microphotograph depicting cell migration using fluorescent readout and cell tracker green as a fluorescent marker of human UC-MSCs. […] The EC50 was determined as a measure of effectiveness of activating agents. […] An initial analysis of the cell free zone using Image J software was used to screen concentrations of activating agents for dose-response determination in further experiments.
# The cell migration assays described above were set up as follows: One million cells/cell line were resuspended in 10 mL MSC-GRO™ serum free, quiescent medium (Vitro Biopharma Cat. No. SC00B17) containing […] mitomycin C (Sigma, Cat. No. M4287) to inhibit proliferation and incubated for 2 hours at room temperature with end-to-end agitation at 7 RPM. In some experiments, curcumin was used at 1 μM to block proliferation. Cells were centrifuged (450×g) for 7 minutes, washed with phosphate buffered saline (PBS) and then resuspended in 1 mL MSC-GRO™ low serum, complete 20 medium (Vitro Biopharma Cat. No. SC00B1) and plated at 25,000 cells/well in black 96 well, TC-coated cell culture plates, (ThermoScientific, Cat. No. 165305) containing cell seed-stoppers (Platypus, Cat. No. CMAUFL4) to form a cell free zone at the center of the well and incubated in 5% CO2, 1% O2, 94% N2 at 37° C. in a humidified chamber for 24 hrs. Plates used for culture of NSCs, were first treated with 10 μg/mL fibronectin (Sigma, Cat. No. F0556) for 2 hours at 37° C. Following washout with PBS (3×), cell seed stoppers were inserted, NSCs were plated at 25,000/well and incubated in 5% CO2, 1% O2, 94% N2 at 37° C. in a humidified chamber for 48 hrs. For studies of the effects of CXCR4 and MMP-9 inhibition, following 24 hours of cell culture, appropriate wells were dosed with 15 μM GM6001 and 20 μM AMD3100 for 6 hours. Cells were washed once with PBS then incubated in serum free, MSC-GRO™ (Vitro Biopharma Cat. No. SC00B17) containing 5 μM Cell Tracker Green CMFDA (Molecular Probes, Cat. No. C7025) at 37° C. for 30 minutes. The wells were then washed with serum free, MSC-Gro™ (Vitro Biopharma Cat. No. SC00B17) and incubated for 30 minutes at 37° C. Cells were washed once with PBS and this was replaced with MSC-GRO™ serum free, quiescent medium (Vitro Biopharma Cat. No. SC00B1I7) containing different concentrations of activating agents. […] A TOPSEAL™ (PerkinElmer, Cat. No. 6050195) covered the plate for live-cell imaging in a BioTek Cytation3 Imaging Reader. […] The gas phase throughout the acquisition of kinetic data was 5% O2, 5% CO2 with the balance nitrogen maintained by a BioTek CO2/O2 gas controller. Images were saved as TIFF files to calculate percent closure using imaging data.
# [8] = test system: human fibroblast; details: read-out: EC50, human fibroblast migration induced by substance P, prior study; suspension culture system; Parenti et al. 1996; cited from earlier work
# [9] = test system: MSCs; experiment: Cell-based proliferation assay (Presto Blue); details: Homo sapiens
# Protocol: as §1
# [10] = curcumin at 500 nM, statistically significant
compound,measurement,setting,value
FGF-2: recombinant human fibroblast growth factor 2,concentration of maximal proliferative responses,[1],about 10 ng/mL
CCCC(=O)[O-].[Na+] [Na butyrate],Oct 3/4 expression increase,[2]; up to 2 weeks,less expression activation
same,FGF-21 expression increase,[3],lower levels
same,SIRT-1 expression increase,[4],significantly less effective
same,Hsp70 expression increase,[5],lower levels
same,CXCR4 expression increase,[6],lower levels
c1cc(CN2CCCNCCNCCCNCC2)ccc1CN1CCCNCCNCCCNCC1 [AMD3100],effect on VPA-induced CB-MSC migration,"[7]; 20 μM AMD3100, CXCR-4 inhibitor, FIG. 7",blocked the VPA-induced CB-MSC migration
same,effect on MSC migration induced by curcumin and quercetin,[7],blocked MSC migration
same,effect on MSC migration induced by curcumin and resveratrol,[7],blocked MSC migration
CNC(=O)[C@H](Cc1c[nH]c2ccccc12)NC(=O)[C@@H](CC(=O)NO)CC(C)C [GM6001],effect on lithium induced CB-MSC migration,"[7]; 15 μM GM6001, MMP-9 inhibitor, FIG. 7",blocked lithium induced CB-MSCs
same,effect on MSC migration induced by curcumin and quercetin,[7],blocked MSC migration
same,effect on MSC migration induced by curcumin and resveratrol,[7],blocked MSC migration
CSCC[C@H](NC(=O)[C@H](CC(C)C)NC(=O)CNC(=O)[C@H](Cc1ccccc1)NC(=O)[C@H](Cc1ccccc1)NC(=O)[C@H](CCC(N)=O)NC(=O)[C@H](CCC(N)=O)NC(=O)[C@@H]1CCCN1C(=O)[C@H](CCCCN)NC(=O)[C@@H]1CCCN1C(=O)[C@@H](N)CCCNC(=N)N)C(N)=O [substance P],EC50,[8],0.0022 µM
same,MSC migration into cell-free zone,"[7]; 3.7 nM substance P, 24 hours, human UC-MSCs, FIG. 1",induced MSC migration into the cell-free center of the well
same,migration (percent closure) dose-response,"[7]; CB-MSCs, 0 to 18.5 nM, 24-hour live cell analysis, FIG. 2",migration increased in a dose-dependent manner
CCCCC(=O)O [valeric acid],Oct 3/4 expression increase,[2]; up to 2 weeks,less expression activation
same,FGF-21 expression increase,[3],lower levels
same,SIRT-1 expression increase,[4],significantly less effective
same,Hsp70 expression increase,[5],lower levels
same,CXCR4 expression increase,[6],lower levels
COc1cc(/C=C/C(=O)CC(=O)/C=C/c2ccc(O)c(OC)c2)ccc1O [curcumin],concentration at which curcumin blocked migration by apparent toxicity,"[7]; 36-hour run, FIG. 4",greater than 1 μM
same,"estimated LD50 (apparent toxicity, reduced cell number)","[7]; 36-hour run, FIG. 4",3 µM
same,EC50,"[7]; 36 h, read-out: apparent EC50, curcumin-induced migration",0.25 µM
same,Oct 3/4 expression increase,[2]; up to 2 weeks,about 20 fold
same,Oct 3/4 expression increase compared to untreated cells,[2]; [10],at least 10 fold
same,FGF-21 expression increase compared to untreated cells,[3]; [10],at least 20 fold
same,Hsp70 expression increase compared to untreated cells,[5]; [10],at least 20 fold
same,CXCR-4 expression increase compared to untreated cells,[6]; [10],at least 20 fold
CC(/C=C/C(=O)NO)=C\[C@@H](C)C(=O)c1ccc(N(C)C)cc1 [TSA],Oct 3/4 expression increase,[2]; up to 2 weeks,less expression activation
same,FGF-21 expression increase,[3],lower levels
same,SIRT-1 expression increase,[4],significantly less effective
same,Hsp70 expression increase,[5],lower levels
same,CXCR4 expression increase,[6],lower levels
"CCCC(CCC)C(=O)O [VPA, valproic acid]",EC50,"[9]; 120 h, increasing VPA in 200 μM lithium, MSCs, 5 day exposure, FIG. 10, read-out: EC50, proliferation",39 µM
same,EC50,"[9]; in the presence of 200 μM lithium, MSCs and NSCs, range over migration and proliferation assays, read-out: VPA concentration 50% effective in inducing cell proliferation and migration",35 to 39 µM
same,EC50,"[9]; in the presence of 200 μM lithium, MSCs and NSCs, read-out: VPA concentration 50% effective in inducing cell proliferation and migration, mean",37 µM
same,EC50,"[7]; read-out: EC50, migration, increasing VPA in 200 μM lithium, MSCs, FIG. 6",36 µM
same,concentration of maximum closure,"[7]; VPA alone, FIG. 5",100 µM
same,Oct 3/4 expression increase vs untreated human MSCs,"[2]; 31.25 μM VPA, 200 μM lithium, up to 2 weeks, FIG. 11",about 20 fold
same,Oct 3/4 expression increase,[2]; up to 2 weeks,about 20 fold
same,SIRT-1 expression increase vs untreated MSC,"[4]; 31.25 μM VPA, 200 μM lithium, FIG. 11",~300 fold
